Data: US20160032269A1, “BUFFERS FOR USE WITH POLYMERASES” (priority 2014, published 2016)
“Also recorded” adds a separate entry of the source.

Tests used:
[1] = Precipitate formation in 5× stock solution; type: physicochemical
Source text: (§1) In view of the surprising success of the reaction mixture comprising SDS and CTAB, a 5× stock solution was generated.

[2] = test system: polymerase derived from two parental polymerases, Pfu and DeepVent, and fused with an Sso7d; assay: Effect of surfactant additives on PCR yield (agarose gel); type: biochemical; details: for PCR yield: additive in PCR reaction mixture, 20 ng template DNA, FIG. 1
Protocol: The effect of various surfactants on polymerase activity and yield in a PCR reaction mixture was tested. A polymerase derived from two parental polymerases, Pfu and DeepVent, and fused with an Sso7d, was formulated in a variety of reaction mixtures in an effort to identify reaction components that improve PCR yield.
A reaction mixture comprising polymerase, Tris-HCL pH 9.0, KCl, ammonium sulfate, 20 ng template DNA and target primers was tested with one or more additional components added as follows (results shown in FIG. 1):
Ranges of concentration of CTAB and SDS were tested and additional components such as octyl b-D-glucopyranoside (OGP) and bovine serum albumin (BSA) were also tested. See, FIG. 2. The lanes of FIG. 2. are described in Table 2 below:
as §1

C[C@H](CCC(=O)NCCC[N+](C)(C)CCCS(=O)(=O)[O-])[C@H]1CC[C@H]2[C@@H]3[C@H](O)C[C@@H]4C[C@H](O)CC[C@]4(C)[C@H]3C[C@H](O)[C@]12C [CHAPS, 3-[(3-cholamidopropyl)dimethylammonio]-1-propanesulfonate]
precipitate in stock solution ([1]; 5× stock solution contained 1% CHAPS): no precipitate was observed
precipitate in stock solution ([1]; CHAPS added to the 5× stock solution): prevented formation of a precipitate
interference with PCR ([2]; CHAPS in 5× stock solution used in PCR reactions, data not shown): did not interfere with PCR

CCCCCCCCCCCCCCCC[N+](C)(C)C.[Br-] [CTAB, cetyl trimethylammonium bromide]
PCR yield [2]: did not improve PCR yield; also recorded: does not provide any apparent benefit

CCCCCCCCCCCCOS(=O)(=O)[O-].[Na+] [SDS, sodium dodecyl sulfate]
PCR yield ([2]; sulfate): did not improve PCR yield; also recorded: does not provide any apparent benefit
